Like-named read-outs stand apart in the source and are kept apart here.
Key:
MEK1 activated ERK1 = biological target: T1, MEK1 activated ERK1 (Homo sapiens, UniProt P27361); experiment: Omnia continuous-read kinase assay for potency against MEK1 activated ERK1; format: biochemical
T1 construct: purchased Millipore (Billerica, Mass.) 14-439-K
In short: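 Apparent IC50 came from initial reaction slopes (RFU vs time) plotted against log inhibitor with a variable-slope fit. Reactions were started with ERK1 (4 nM final) added to 50 μM ATP, roughly at its appKM, and 10 μM Sox-conjugated ST17 peptide in 20 mM Tris pH 7.5, 5 mM MgCl2. Fluorescence was monitored every 71 seconds.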

[1] = system: ERK1/2 phosphorylation of p90RSK in HCT116 cells; experiment: Detection of total and phospho-RSK by MSD ELISA (HCT116); format: cell-based; conditions: Homo sapiens, HCT-116, read-out: ERK1/ERK2 PRSK HCT116 EC50
In short: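 HCT116 cells treated with compound in RPMI/10% FBS for 2 h at 37° C, then lysed. Phospho-RSK (Ser380) and total RSK in lysates measured by MSD sandwich electrochemiluminescence ELISA as a readout of ERK1/2 activity.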

[2] = MEK1 activated ERK1, ATP at KM, read-out: ERK1 Omnia WT ATP KM IC50

T1 sequence (P27361 whole entry): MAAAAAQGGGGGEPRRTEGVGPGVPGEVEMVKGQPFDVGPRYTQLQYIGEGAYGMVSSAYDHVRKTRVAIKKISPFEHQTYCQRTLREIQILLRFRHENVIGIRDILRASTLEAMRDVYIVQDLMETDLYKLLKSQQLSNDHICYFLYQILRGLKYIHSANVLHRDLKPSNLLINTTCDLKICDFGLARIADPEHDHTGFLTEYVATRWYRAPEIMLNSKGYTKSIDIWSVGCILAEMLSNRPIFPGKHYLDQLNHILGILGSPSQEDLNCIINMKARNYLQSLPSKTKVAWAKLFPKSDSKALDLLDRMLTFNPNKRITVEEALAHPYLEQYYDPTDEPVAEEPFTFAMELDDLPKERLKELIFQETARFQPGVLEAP

IC50 (MEK1 activated ERK1; ATP at KM, WT)	EC50 [1]	SMILES	IC50 (MEK1 activated ERK1; [2])
101 to 500 nM	101 to 500 nM	C=CC(=O)Nc1cc(OCC(N)=O)ccc1Nc1nc(NC2CCOCC2)ncc1C(F)(F)F [Compound I-387, N-(5-(2-amino-2-oxoethoxy)-2-((2-((tetrahydro-2H-pyran-4-yl)amino)-5-(trifluoromethyl)pyrimidin-4-yl)amino)phenyl)acrylamide]	–
< 100 nM	< 100 nM	C=CC(=O)Nc1cc(CN2CCN(C(C)=O)CC2)ccc1Nc1nc(Nc2cc(OC)ncc2C)ncc1C(F)(F)F [Compound I-381, N-(5-((4-acetylpiperazin-1-yl)methyl)-2-((2-((2-methoxy-5-methylpyridin-4-yl)amino)-5-(trifluoromethyl)pyrimidin-4-yl)amino)phenyl)acrylamide]	–
> 1000 nM	> 1000 nM	C=CC(=O)Nc1ccc(OCC(N)=O)cc1Nc1nc(NC2CCOCC2)ncc1C(F)(F)F [Compound I-395, N-(4-(2-amino-2-oxoethoxy)-2-((2-((tetrahydro-2H-pyran-4-yl)amino)-5-(trifluoromethyl)pyrimidin-4-yl)amino)phenyl)acrylamide]	–
101 to 500 nM	501 to 999 nM	C=CC(=O)Nc1cc(CCc2cnn(C)c2)ccc1Nc1nc(Nc2cc(OC)ncc2C)ncc1C(F)(F)F [Compound I-427, N-(2-((2-((2-methoxy-5-methylpyridin-4-yl)amino)-5-(trifluoromethyl)pyrimidin-4-yl)amino)-5-(2-(1-methyl-1H-pyrazol-4-yl)ethyl)phenyl)acrylamide]	–
< 100 nM	101 to 500 nM	C=CC(=O)Nc1cc(O[C@H](C)C(=O)N2CCN(S(C)(=O)=O)CC2)ccc1Nc1nc(Nc2cc(OC)ncc2C)ncc1C(F)(F)F [Compound I-410, (R)—N-(2-((2-((2-methoxy-5-methylpyridin-4-yl)amino)-5-(trifluoromethyl)pyrimidin-4-yl)amino)-5-((1-(4-(methylsulfonyl)piperazin-1-yl)-1-oxopropan-2-yl)oxy)phenyl)acrylamide]	–
< 100 nM	< 100 nM	C=CC(=O)Nc1cc(CN2CCN(C(=O)c3cccnc3)CC2)ccc1Nc1nc(Nc2cc(OC)ncc2C)ncc1C(F)(F)F [Compound I-389, N-(2-((2-((2-methoxy-5-methylpyridin-4-yl)amino)-5-(trifluoromethyl)pyrimidin-4-yl)amino)-5-((4-nicotinoylpiperazin-1-yl)methyl)phenyl)acrylamide]	–
< 100 nM	< 100 nM	C=CC(=O)Nc1cc(C)c(F)cc1Nc1nc(Nc2nc(OC)ncc2C)ncc1C(F)(F)F [Compound I-377, N-(4-fluoro-2-((2-((2-methoxy-5-methylpyrimidin-4-yl)amino)-5-(trifluoromethyl)pyrimidin-4-yl)amino)-5-methylphenyl)acrylamide]	–
101 to 500 nM	501 to 999 nM	C=CC(=O)Nc1cc(C)ccc1Nc1nc(Nc2cc(OC)ncc2CC)ncc1C(F)(F)F [Compound I-408, N-(2-((2-((5-ethyl-2-methoxypyridin-4-yl)amino)-5-(trifluoromethyl)pyrimidin-4-yl)amino)-5-methylphenyl)acrylamide]	–
101 to 500 nM	501 to 999 nM	C=CC(=O)Nc1cc(C)ccc1Nc1nc(Nc2cc(OCCOC)ncc2C)ncc1C(F)(F)F [Compound I-359, N-(2-((2-((2-(2-methoxyethoxy)-5-methylpyridin-4-yl)amino)-5-(trifluoromethyl)pyrimidin-4-yl)amino)-5-methylphenyl)acrylamide]	–
< 100 nM	< 100 nM	C=CC(=O)Nc1cc(CN2CCN(C(C)=O)C[C@H]2C)ccc1Nc1nc(Nc2cc(OC)ncc2C)ncc1C(F)(F)F [Compound I-422, (R)—N-(5-((4-acetyl-2-methylpiperazin-1-yl)methyl)-2-((2-((2-methoxy-5-methylpyridin-4-yl)amino)-5-(trifluoromethyl)pyrimidin-4-yl)amino)phenyl)acrylamide]	–
501 to 999 nM	501 to 999 nM	C=CC(=O)Nc1cc(C)ccc1Nc1nc(Nc2cc(OC)ncc2C(F)F)ncc1C(F)(F)F [Compound I-431, N-(2-((2-((5-(difluoromethyl)-2-methoxypyridin-4-yl)amino)-5-(trifluoromethyl)pyrimidin-4-yl)amino)-5-methylphenyl)acrylamide]	–
501 to 999 nM	501 to 999 nM	C=CC(=O)Nc1cc(CN2CCN(C(=O)CO)CC2)ccc1Nc1nc(Nc2nc(OC)ncc2C)ncc1C(F)(F)F [Compound I-386, N-(5-((4-(2-hydroxyacetyl)piperazin-1-yl)methyl)-2-((2-((2-methoxy-5-methylpyrimidin-4-yl)amino)-5-(trifluoromethyl)pyrimidin-4-yl)amino)phenyl)acrylamide]	–
> 1000 nM	> 1000 nM	C=CC(=O)Nc1cc(C)ccc1Nc1nc(Nc2cc(C(N)=O)nn2C)ncc1C(F)(F)F [Compound I-423, 5-((4-((2-acrylamido-4-methylphenyl)amino)-5-(trifluoromethyl)pyrimidin-2-yl)amino)-1-methyl-1H-pyrazole-3-carboxamide]	–
501 to 999 nM	> 1000 nM	C=CC(=O)Nc1cc(C)ccc1Nc1nc(Nc2cc(-c3c[nH]cn3)ccc2C)ncc1C(F)(F)F [Compound I-378, N-(2-((2-((5-(1H-imidazol-4-yl)-2-methylphenyl)amino)-5-(trifluoromethyl)pyrimidin-4-yl)amino)-5-methylphenyl)acrylamide]	–
> 1000 nM	> 1000 nM	C=CC(=O)Nc1cc(C)ccc1Nc1nc(Nc2ccc3ocnc3c2)ncc1C(F)(F)F [Compound I-375, N-(2-((2-(benzo[d]oxazol-5-ylamino)-5-(trifluoromethyl)pyrimidin-4-yl)amino)-5-methylphenyl)acrylamide]	–
101 to 500 nM	101 to 500 nM	C=CC(=O)Nc1cc(C)ccc1Nc1nc(Nc2cc(P(C)(C)=O)ncc2C)ncc1C(F)(F)F [Compound I-343, N-(2-((2-((2-(dimethylphosphoryl)-5-methylpyridin-4-yl)amino)-5-(trifluoromethyl)pyrimidin-4-yl)amino)-5-methylphenyl)acrylamide]	–
101 to 500 nM	101 to 500 nM	C=CC(=O)Nc1cc(CN2CCN(C(=O)c3ccccn3)CC2)ccc1Nc1nc(Nc2nc(OC)ncc2C)ncc1C(F)(F)F [Compound I-391, N-(2-((2-((2-methoxy-5-methylpyrimidin-4-yl)amino)-5-(trifluoromethyl)pyrimidin-4-yl)amino)-5-((4-picolinoylpiperazin-1-yl)methyl)phenyl)acrylamide]	–
101 to 500 nM	501 to 999 nM	C=CC(=O)Nc1cc(C)ccc1Nc1nc(Nc2c[nH]c(=O)cc2C)ncc1C(F)(F)F [Compound I-370, N-(5-methyl-2-((2-((4-methyl-6-oxo-1,6-dihydropyridin-3-yl)amino)-5-(trifluoromethyl)pyrimidin-4-yl)amino)phenyl)acrylamide]	–
< 100 nM	101 to 500 nM	C=CC(=O)Nc1cc(OCCN)ccc1Nc1nc(Nc2cc(OC)ncc2C)ncc1C(F)(F)F [Compound I-396, N-(5-(2-aminoethoxy)-2-((2-((2-methoxy-5-methylpyridin-4-yl)amino)-5-(trifluoromethyl)pyrimidin-4-yl)amino)phenyl)acrylamide]	–
> 1000 nM	> 1000 nM	C=CC(=O)Nc1cc(C)ccc1Nc1nc(Nc2cc(C(F)(F)F)nn2C)ncc1C(F)(F)F [Compound I-419, N-(5-methyl-2-((2-((1-methyl-3-(trifluoromethyl)-1H-pyrazol-5-yl)amino)-5-(trifluoromethyl)pyrimidin-4-yl)amino)phenyl)acrylamide]	–
–	< 100 nM	C=CC(=O)Nc1ccccc1Nc1nc(Nc2cc(OC)ncc2C)ncc1C(F)(F)F [Compound I-85, N-(2-((2-((2-Methoxy-5-methylpyridin-4-yl)amino)-5-(trifluoromethyl)pyrimidin-4-yl)amino)phenyl)acrylamide]	< 100 nM
< 100 nM	< 100 nM	C=CC(=O)Nc1cc(CN2CCN(C(=O)c3cnccn3)CC2)ccc1Nc1nc(Nc2cc(OC)ncc2C)ncc1C(F)(F)F [Compound I-390, N-(2-((2-((2-methoxy-5-methylpyridin-4-yl)amino)-5-(trifluoromethyl)pyrimidin-4-yl)amino)-5-((4-(pyrazine-2-carbonyl)piperazin-1-yl)methyl)phenyl)acrylamide]	–
501 to 999 nM	501 to 999 nM	C=CC(=O)Nc1cc(CN2CCN(C(=O)c3cnccn3)CC2)ccc1Nc1nc(Nc2nc(OC)ncc2C)ncc1C(F)(F)F [Compound I-393, N-(2-((2-((2-methoxy-5-methylpyrimidin-4-yl)amino)-5-(trifluoromethyl)pyrimidin-4-yl)amino)-5-((4-(pyrazine-2-carbonyl)piperazin-1-yl)methyl)phenyl)acrylamide]	–
101 to 500 nM	< 100 nM	C=CC(=O)Nc1cc(CN2CCN(C(=O)c3ccccn3)CC2)ccc1Nc1nc(Nc2cc(OC)ncc2C)ncc1C(F)(F)F [Compound I-388, N-(2-((2-((2-methoxy-5-methylpyridin-4-yl)amino)-5-(trifluoromethyl)pyrimidin-4-yl)amino)-5-((4-picolinoylpiperazin-1-yl)methyl)phenyl)acrylamide]	–

SMILES	IC50 (MEK1 activated ERK1; ATP at KM, WT)	EC50 [1]	IC50 (MEK1 activated ERK1; [2])
C=CC(=O)Nc1cc(C)ccc1Nc1nc(Nc2cc(NCCOC)nc(OC)c2)ncc1C(F)(F)F [Compound I-294, N-(2-((2-((2-methoxy-6-((2-methoxyethyl)amino)pyridin-4-yl)amino)-5-(trifluoromethyl)pyrimidin-4-yl)amino)-5-methylphenyl)acrylamide]	–	< 100 nM	101 to 500 nM
